# Results as given in patent US8802597B2, “Herbicidal pyrimidines” (E I du Pont de Nemours and Company, priority 2003, dated 2014).
# Where two headings read alike, the source gives them in different places.
# What was measured:
# Test in all cases: Test C pre/postemergence
# Assay type in all cases: in vivo
# [1] = system: common (oilseed) sunflower (Helianthus annuus); conditions: Helianthus annuus, pre-emergence, Preemergence, read-out: Plant response rating, Sunflower
# Method in brief: (§1)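 Injury scored visually 12–14 days after application on 0–100 scale (100 = complete control), relative to controls. Compounds, formulated with surfactant in non-phytotoxic solvent, applied to soil at planting (pre) or to 1- to 4-leaf plants 2–18 cm tall (post) in greenhouse.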
# [2] = system: morningglory (Ipomoea coccinea); conditions: Ipomoea; for pest or weed control at 16 g/ha: 16 g ai/ha; for pest or weed control at 31 g/ha: 31 g ai/ha; for pest or weed control at 62 g/ha: 62 g ai/ha; for pest or weed control at 125 g/ha: 125 g ai/ha
# Method in brief: as §1
# [3] = system: crabgrass (Digitaria sanguinalis); conditions: Digitaria sanguinalis; for pest or weed control at 16 g/ha: 16 g ai/ha; for pest or weed control at 31 g/ha: 31 g ai/ha; for pest or weed control at 62 g/ha: 62 g ai/ha; for pest or weed control at 125 g/ha: 125 g ai/ha
# Method in brief: as §1
# [4] = system: Surinam grass (Brachiaria decumbens); conditions: Urochloa decumbens; for pest or weed control at 125 g/ha: 125 g ai/ha; for pest or weed control at 16 g/ha: 16 g ai/ha; for pest or weed control at 31 g/ha: 31 g ai/ha; for pest or weed control at 62 g/ha: 62 g ai/ha
# Method in brief: as §1
# [5] = system: lambsquarters (Chenopodium album); conditions: Chenopodium album; for pest or weed control at 16 g/ha: 16 g ai/ha; for pest or weed control at 31 g/ha: 31 g ai/ha; for pest or weed control at 62 g/ha: 62 g ai/ha; for pest or weed control at 125 g/ha: 125 g ai/ha
# Method in brief: as §1
# corn (Zea mays) = conditions: Zea mays; for Corn plant response rating (crop injury, 0 = no effect, 100 = complete kill) at 16 g/ha: 16 g ai/ha; for Corn plant response rating (crop injury, 0 = no effect, 100 = complete kill) at 31 g/ha: 31 g ai/ha; for Corn plant response rating (crop injury, 0 = no effect, 100 = complete kill) at 62 g/ha: 62 g ai/ha
# Method in brief: as §1
# [6] = post-emergence, Postemergence, read-out: Plant response rating (scale of 0 to 100), Morningglory
# [7] = post-emergence, Postemergence, scale 0 to 100 (0 no effect, 100 complete control), read-out: Morningglory plant response rating
# [8] = pre-emergence, Preemergence, scale 0 to 100, 0 no effect, 100 complete control, read-out: Plant response rating, Morningglory
# [9] = post-emergence, Postemergence, read-out: Plant response rating (scale of 0 to 100), Crabgrass
# [10] = post-emergence, Postemergence, scale 0 to 100 (0 no effect, 100 complete control), read-out: Crabgrass plant response rating
# [11] = pre-emergence, Preemergence, scale 0 to 100, 0 no effect, 100 complete control, read-out: Plant response rating, Crabgrass
# [12] = post-emergence, Postemergence, scale 0 to 100 (0 no effect, 100 complete control), read-out: Surinam Grass plant response rating
# [13] = post-emergence, Postemergence, read-out: Plant response rating (scale of 0 to 100), Surinam Grass
# [14] = pre-emergence, Preemergence, scale 0 to 100, 0 no effect, 100 complete control, read-out: Plant response rating, Surinam Grass
# [15] = post-emergence, Postemergence, read-out: Plant response rating (scale of 0 to 100), Lambsquarters
# [16] = post-emergence, Postemergence, scale 0 to 100 (0 no effect, 100 complete control), read-out: Lambsquarters plant response rating
# [17] = pre-emergence, Preemergence, scale 0 to 100, 0 no effect, 100 complete control, read-out: Plant response rating, Lambsquarters
# [18] = post-emergence, Postemergence, read-out: Plant response rating (scale of 0 to 100), Corn
# [19] = pre-emergence, Preemergence, scale 0 to 100, 0 no effect, 100 complete control, read-out: Plant response rating, Corn
smiles,measurement,setting,value
COC(=O)c1nc(C2CC2)nc(N)c1F [Compound 25],pest or weed control at 16 g/ha,"[1]; 16 g ai/ha, scale 0 to 100, 0 no effect, 100 complete control",5%
same,pest or weed control at 31 g/ha,"[1]; 31 g ai/ha, scale 0 to 100, 0 no effect, 100 complete control",60%
same,pest or weed control at 62 g/ha,"[1]; 62 g ai/ha, scale 0 to 100, 0 no effect, 100 complete control",75%
same,pest or weed control at 125 g/ha,"[1]; 125 g ai/ha, scale 0 to 100",90%
same,pest or weed control at 16 g/ha,[2]; [6],90%
same,pest or weed control at 31 g/ha,[2]; [6],90%
same,pest or weed control at 62 g/ha,[2]; [7],90%
same,pest or weed control at 125 g/ha,[2]; [7],90%
same,pest or weed control at 16 g/ha,[2]; [8],0%
same,pest or weed control at 31 g/ha,[2]; [8],0%
same,pest or weed control at 62 g/ha,[2]; [8],50%
same,pest or weed control at 125 g/ha,"[2]; pre-emergence, Preemergence, scale 0 to 100, read-out: Plant response rating, Morningglory",90%
same,pest or weed control at 16 g/ha,[3]; [9],0%
same,pest or weed control at 31 g/ha,[3]; [9],0%
same,pest or weed control at 62 g/ha,[3]; [10],30%
same,pest or weed control at 125 g/ha,[3]; [10],50%
same,pest or weed control at 16 g/ha,[3]; [11],0%
same,pest or weed control at 31 g/ha,[3]; [11],0%
same,pest or weed control at 62 g/ha,[3]; [11],0%
same,pest or weed control at 125 g/ha,"[3]; pre-emergence, Preemergence, scale 0 to 100, read-out: Plant response rating, Crabgrass",0%
same,pest or weed control at 125 g/ha,[4]; [12],5%
same,pest or weed control at 16 g/ha,[4]; [13],0%
same,pest or weed control at 31 g/ha,[4]; [13],0%
same,pest or weed control at 62 g/ha,[4]; [12],0%
same,pest or weed control at 16 g/ha,[4]; [14],0%
same,pest or weed control at 31 g/ha,[4]; [14],0%
same,pest or weed control at 62 g/ha,[4]; [14],0%
same,pest or weed control at 125 g/ha,"[4]; pre-emergence, Preemergence, scale 0 to 100, read-out: Plant response rating, Surinam Grass",40%
same,pest or weed control at 16 g/ha,[5]; [15],30%
same,pest or weed control at 31 g/ha,[5]; [15],60%
same,pest or weed control at 62 g/ha,[5]; [16],85%
same,pest or weed control at 125 g/ha,[5]; [16],90%
same,pest or weed control at 16 g/ha,[5]; [17],0%
same,pest or weed control at 31 g/ha,[5]; [17],0%
same,pest or weed control at 62 g/ha,[5]; [17],30%
same,pest or weed control at 125 g/ha,"[5]; pre-emergence, Preemergence, scale 0 to 100, read-out: Plant response rating, Lambsquarters",50%
same,"Corn plant response rating (crop injury, 0 = no effect, 100 = complete kill) at 16 g/ha",corn (Zea mays); [18],0%
same,"Corn plant response rating (crop injury, 0 = no effect, 100 = complete kill) at 31 g/ha",corn (Zea mays); [18],0%
same,"Corn plant response rating (crop injury, 0 = no effect, 100 = complete kill) at 62 g/ha","corn (Zea mays); post-emergence, Postemergence, scale 0 to 100 (0 no effect, 100 complete control), read-out: Corn plant response rating",0%
same,"Corn plant response rating (crop injury, 0 = no effect, 100 = complete kill) at 125 g/ha","corn (Zea mays); post-emergence, Postemergence, 125 g ai/ha, scale 0 to 100 (0 no effect, 100 complete control), read-out: Corn plant response rating",0%
same,"Corn plant response rating (crop injury, 0 = no effect, 100 = complete kill) at 16 g/ha",corn (Zea mays); [19],0%
same,"Corn plant response rating (crop injury, 0 = no effect, 100 = complete kill) at 31 g/ha",corn (Zea mays); [19],0%
same,"Corn plant response rating (crop injury, 0 = no effect, 100 = complete kill) at 62 g/ha",corn (Zea mays); [19],0%
